Test [1] concerns HEK293 cells stably expressing αS-A53T-YFP. The test can be described thus: ProteoStat dye assay, ligand pre-treatment, αS fibers templated intracellular aggregation. Format: cell-based, human. The settings on record: ligand 10 µM for 16 h, washed, then 5 µM αS fibers for 24 h. How it is done:
We further tested NS163 against intracellular αS aggregation using same HEK293 cells (express αS-A53T-YFP)[23],[24],[50]. In this assay, we added NS163 (10 µM) to the HEK cells and incubated the cells for 16 h, washed the cells and treated with the preformed fibers of αS (5 µM monomer) and incubated for an additional 24 h. The ProteoStat dye-based intensity of HEK cells treated with αS fibers was ~4 fold higher than the control (no fibers) (Supplementary Fig. 19). NS163 was a very potent antagonist as it was able to reduce the intracellular inclusions by 80% at 10 µM, measured using the ProteoStat dye-based assay (Supplementary Fig. 19). Under matched conditions, 10 µM NS132 was able to reduce the intracellular inclusions by 57% (Supplementary Fig. 19). The higher antagonist activity of NS163 than NS132 is likely due to the better cell permeability of the former. […] It is important to point out that our potent ligands (NS163 and NS132) were able to inhibit αS preformed fibers templated aggregation of both monomeric WT αS and A53T αS mutant. It has been shown that the WT αS fibers templated aggregation of WT αS and its mutants is predominantly dependent on the interaction of the fibers with the N-terminus of the monomeric WT αS and its mutants[62],[68],[69]. […]

Test [2] concerns HEK cells stably expressing αS-A53T-YFP. The test can be described thus: HEK cells treated with 5th cycle PMCA samples (ProteoStat, confocal). The class given is cell-based, human. How it is done: To further validate that NS132 generates fiber incompetent structures from the fibers-catalyzed aggregation, we utilized HEK cells that stably express αS-A53T-YFP[24],[51]–[54]. The solutions of αS aggregation in the absence and presence of NS132 from the 5th cycle of PMCA (2 μM in monomeric αS, ±NS132) were introduced to the HEK cells in the presence of Lipofectamine 3000 for 24 h. In contrast to the control (no fibers) (Fig. 3i, control), we observed a significant number of inclusions of αS-A53T-YFP protein in the presence of αS fibers (Fig. 3i, αS, white arrows). […] In contrast, in the presence of the PMCA assay sample from the 5th cycle ( + NS132), there was a significant reduction in the number of αS-A53T-YFP inclusions (Fig. 3i, +NS132). The ProteoStat intensity of inclusions in HEK cells treated with the PMCA sample from cycle five was ~2–3 fold higher than the control condition (no fibers) (Fig. 3j, black). […]
This assay was performed based on a previous protocol with slight modifications. […] The resulting cell pellets were then homogenized, transferred into an autoclaved 1.7 mL microcentrifuge tube, and counted to normalize the data. […] The cell solution was homogenized and equally aliquoted into the desired number of wells in a Costar 96-well flat black plate and fluorescence was measured (λex = 550 nm, λem = 600 nm) on an Infinite M200 Pro Plate Reader. […]

SMILES strings stand for the structures. “And” between values parts separate entries of the source, which are not always exact repeats. Identical values can stand only once.

With `Cc1ccc(NC(=O)c2ccc(NC(=O)c3ccc([N+](=O)[O-])c(NCCc4c[nH]c5ccccc45)n3)c(NCC3CCCCC3)n2)c(OCC(=O)O)n1` [NS132], the “reduction of intracellular inclusions (ProteoStat)” value in test [1] is 57%. Further, in test [2] (HEK cells + fifth cycle PMCA sample (2 μM αS in monomer) with NS132), the “ProteoStat dye intensity (raw), individual experiments” value was 1001 and 1176 and 997 and 1009 and 1031 and 978 and 1091 and 1123 and 1010 and 1092 and 1179. Also, in test [2] (PMCA sample from cycle five in the presence of NS132), the “ProteoStat intensity of inclusions, in words” value is reported as “significantly lower”.

These data come from publication PMC11061149, “Protein mimetic 2D FAST rescues alpha synuclein aggregation mediated early and post disease Parkinson’s phenotypes” (Nature Communications, 2024).
